Experiments:
[1] = molecular target: T1, human ORL-1 receptor (Homo sapiens, UniProt P41146); test: [35S]GTPγS functional assay with ORL-1 receptor membranes; format: biochemical; conditions: for Emax: [35S]GTPγS functional assay, NC = 100
T1 construct: host or cells: recombinant HEK-293 cells
Description: Filter plates were subsequently dried at 50° C. for 2-3 hours. […] 3.0.

[2] = molecular target: human opioid receptor-like (ORL-1) receptor (Homo sapiens, UniProt P41146); format: binding
Sequence of human opioid receptor-like (ORL-1) receptor (P41146 whole entry): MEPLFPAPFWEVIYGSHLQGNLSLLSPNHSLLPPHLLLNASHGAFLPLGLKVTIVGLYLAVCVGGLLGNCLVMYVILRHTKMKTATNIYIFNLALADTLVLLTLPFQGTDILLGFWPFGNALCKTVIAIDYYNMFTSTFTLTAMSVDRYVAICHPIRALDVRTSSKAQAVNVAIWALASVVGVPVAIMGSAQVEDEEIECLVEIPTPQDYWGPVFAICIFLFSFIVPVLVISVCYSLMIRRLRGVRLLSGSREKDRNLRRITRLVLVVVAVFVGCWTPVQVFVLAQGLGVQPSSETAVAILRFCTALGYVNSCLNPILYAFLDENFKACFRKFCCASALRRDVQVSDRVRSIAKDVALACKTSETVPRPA

T1 sequence (P41146 whole entry): as above

CC(C)C[C@H](NC(=O)[C@H](CCCCN)NC(=O)[C@H](CCCNC(=N)N)NC(=O)C(C)(C)NC(=O)[C@H](CO)NC(=O)[C@H](CCCCN)NC(=O)[C@H](CCCNC(=N)N)NC(=O)C(C)(C)NC(=O)CNC(=O)[C@@H](NC(=O)[C@H](Cc1ccccc1)NC(=O)CNC(=O)CNC(=O)[C@@H](N)Cc1ccccc1)[C@@H](C)O)C(=O)N[C@@H](C)C(=O)N[C@@H](CC(N)=O)C(=O)N[C@@H](CCC(N)=O)C(N)=O [VIIA, FGGFTG(AIB)RKS(AIB)RKLANQ-NH2]
Emax [1]: 90% | agonist character at ORL-1 ([1]; functional assay, in words): efficacious agonist | potency compared with NC ([1]; in words): more potent | affinity compared with NC [2]: significantly higher affinity

CC(C)C[C@H](NC(=O)[C@H](CCCCN)NC(=O)[C@H](CCCNC(=N)N)NC(=O)[C@H](C)NC(=O)[C@H](CO)NC(=O)[C@H](CCCCN)NC(=O)[C@H](CCCNC(=N)N)NC(=O)C(C)(C)NC(=O)CNC(=O)[C@@H](NC(=O)[C@H](Cc1ccccc1)NC(=O)CNC(=O)CNC(=O)[C@@H](N)Cc1ccccc1)[C@@H](C)O)C(=O)N[C@@H](C)C(=O)N[C@@H](CC(N)=O)C(=O)N[C@@H](CCC(N)=O)C(=O)O [I]
Emax [1]: 97%

CC(C)C[C@H](NC(=O)[C@H](CCCCN)NC(=O)[C@H](CCCNC(=N)N)NC(=O)[C@H](C)NC(=O)[C@H](CO)NC(=O)[C@H](CCCCN)NC(=O)[C@H](CCCNC(=N)N)NC(=O)C(C)(C)NC(=O)CNC(=O)[C@@H](NC(=O)[C@H](Cc1ccccc1)NC(=O)CNC(=O)CNC(=O)[C@@H](N)Cc1ccccc1)[C@@H](C)O)C(=O)N[C@@H](C)C(=O)N[C@@H](CC(N)=O)C(=O)N[C@@H](CCC(N)=O)C(N)=O [IA]
Emax [1]: 82%

CC(C)C[C@H](NC(=O)[C@H](CCCCN)NC(=O)[C@H](CCCNC(=N)N)NC(=O)[C@H](C)NC(=O)[C@H](CO)NC(=O)[C@H](CCCCN)NC(=O)[C@H](CCCNC(=N)N)NC(=O)[C@H](C)NC(=O)CNC(=O)[C@@H](NC(=O)[C@H](Cc1ccccc1)NC(=O)CNC(=O)CNC(=O)[C@@H](N)Cc1ccccc1)[C@@H](C)O)C(=O)NC(C)(C)C(=O)N[C@@H](CC(N)=O)C(=O)N[C@@H](CCC(N)=O)C(=O)O [III]
Emax [1]: 91%

CC(C)C[C@H](NC(=O)[C@H](CCCCN)NC(=O)[C@H](CCCNC(=N)N)NC(=O)[C@H](C)NC(=O)[C@H](CO)NC(=O)[C@H](CCCCN)NC(=O)[C@H](CCCNC(=N)N)NC(=O)[C@H](C)NC(=O)CNC(=O)[C@@H](NC(=O)[C@H](Cc1ccccc1)NC(=O)CNC(=O)CNC(=O)[C@@H](N)Cc1ccccc1)[C@@H](C)O)C(=O)NC(C)(C)C(=O)N[C@@H](CC(N)=O)C(=O)N[C@@H](CCC(N)=O)C(N)=O [IIIA]
Emax [1]: 97%

CC(C)C[C@H](NC(=O)[C@H](CCCCN)NC(=O)[C@H](CCCNC(=N)N)NC(=O)C(C)(C)NC(=O)[C@H](CO)NC(=O)[C@H](CCCCN)NC(=O)[C@H](CCCNC(=N)N)NC(=O)[C@H](C)NC(=O)CNC(=O)[C@@H](NC(=O)[C@H](Cc1ccccc1)NC(=O)CNC(=O)CNC(=O)[C@@H](N)Cc1ccccc1)[C@@H](C)O)C(=O)N[C@@H](C)C(=O)N[C@@H](CC(N)=O)C(=O)N[C@@H](CCC(N)=O)C(N)=O [IIA]
Emax [1]: 82%

CC(C)C[C@H](NC(=O)[C@H](CCCCN)NC(=O)[C@H](CCCNC(=N)N)NC(=O)C(C)(C)NC(=O)[C@H](CO)NC(=O)[C@H](CCCCN)NC(=O)[C@H](CCCNC(=N)N)NC(=O)[C@H](C)NC(=O)CNC(=O)[C@@H](NC(=O)[C@H](Cc1ccccc1)NC(=O)CNC(=O)CNC(=O)[C@@H](N)Cc1ccccc1)[C@@H](C)O)C(=O)N[C@@H](C)C(=O)N[C@@H](CC(N)=O)C(=O)N[C@@H](CCC(N)=O)C(=O)O [II]
Emax [1]: 96%

— US20040259775A1, “Conformationally constrained peptides that bind the ORL-1 receptor” (EURO-CELTIQUE S.A., priority 2002, published 2004)
